This is an account of results in US7414054B2, “3-(arylamino)methylene-1, 3-dihydro-2H-indol-2-ones as kinase inhibitors” (Allergan, Inc., priority 2001, dated 2008).

In data set [1] the target is T1, cytoplasmic domain of the human VEGF receptor (VEGFR-2) (Homo sapiens, UniProt P35968).
T1 construct: The cytoplasmic domain of the human VEGF receptor (VEGFR-2) was expressed as a Histidine-tagged fusion protein; His (Histidine tag); made in house; host or cells: insect cells (baculovirus)
Put plainly: KDR Assay. Type of data set: biochemical. Conditions: His-VEGFR-2; 3.6 μM ATP. The protocol:
Automated FLIPR (Fluorometric Imaging Plate Reader) technology was used to screen for inhibitors of VEGF induced increases in intracellular calcium levels in fluorescent dye loaded endothelial cells. HUVEC (human umbilical vein endothelial cells) (Clonetics) were seeded in 96-well fibronectin coated black-walled plates overnight at 37° C./5% CO2. Cells were loaded with calcium indicator Fluo-4 for 45 minutes at 37° C. Cells were washed 4 times (Original Cell Wash, Labsystems) to remove extracellular dye. Test compounds were reconstituted in 100% DMSO and added to the cells to give a final DMSO concentration of 0.1%. For screening, cells were pre-incubated with test agents for 30 minutes, at a single concentration (10 μM) or at concentrations ranging from 0.01 to 10.0 μM followed by VEGF stimulation (5 ng/mL). Changes in fluorescence at 516 nm were measured simultaneously in all 96 wells using a cooled CCD camera. Data were generated by determining max-min fluorescence levels for unstimulated, stimulated, and drug treated samples. IC50 values for test compounds were calculated from % inhibition of VEGF stimulated responses in the absence of inhibitor. Protocol for KDR Assay: KDR Assay: The cytoplasmic domain of the human VEGF receptor (VEGFR-2) was expressed as a Histidine-tagged fusion protein following infection of insect cells using an engineered baculovirus. His-VEGFR-2 was purified to homogeneity, as determined by SDS-PAGE, using nickel resin chromatography. Kinase assays were performed in 96 well microtiter plates that were coated overnight with 30 μg of poly-Glu-Tyr (4:1) in 10 mM Phosphate Buffered Saline (PBS), pH 7.2-7.4. The plates were incubated with 1% BSA and then washed four times with PBS prior to starting the reaction. Reactions were carried out in 120 μL reaction volumes containing 3.6 μM ATP in kinase buffer (50 mM Hepes buffer pH 7.4, 20 mM MgCl2, 0.1 mM MnCl2 and 0.2 mM Na3VO4). Test compounds were reconstituted in 100% DMSO and added to the reaction to give a final DMSO concentration of 5%. Reactions were initiated by the addition 0.5 ng of purified protein. Following a ten minute incubation at 25° C., the reactions were washed four times with PBS containing 0.05% Tween-20. 100 μl of a monoclonal anti-phosphotyrosine antibody-peroxidase conjugate was diluted 1:10000 in PBS-Tween-20 and added to the wells for 30 minutes. […] The reaction was terminated by the addition of 100 μl of 2.5N H2SO4 to each well and read using a microplate ELISA reader set at 492 nm. IC50 values for compound inhibition were calculated directly from graphs of optical density (arbitrary units) versus compound concentration following subtraction of blank values. […]

The test system of data set [2] is VEGF induced increases in intracellular calcium levels in HUVEC (human umbilical vein endothelial cells). As to the kind of experiment: VEGF Stimulated Ca++ Signal In Vitro (FLIPR). Conditions: VEGF 5 ng/mL; for IC50: 0.01 to 10.0 μM. Format: cell-based. The method, then:
VEGF Stimulated Ca^++ Signal In Vitro
Automated FLIPR (Fluorometric Imaging Plate Reader) technology was used to screen for inhibitors of VEGF induced increases in intracellular calcium levels in fluorescent dye loaded endothelial cells. HUVEC (human umbilical vein endothelial cells) (Clonetics) were seeded in 96-well fibronectin coated black-walled plates overnight at 37° C./5% CO2. Cells were loaded with calcium indicator Fluo-4 for 45 minutes at 37° C. Cells were washed 4 times (Original Cell Wash, Labsystems) to remove extracellular dye. Test compounds were reconstituted in 100% DMSO and added to the cells to give a final DMSO concentration of 0.1%. For screening, cells were pre-incubated with test agents for 30 minutes, at a single concentration (10 μM) or at concentrations ranging from 0.01 to 10.0 μM followed by VEGF stimulation (5 ng/mL). Changes in fluorescence at 516 nm were measured simultaneously in all 96 wells using a cooled CCD camera. Data were generated by determining max-min fluorescence levels for unstimulated, stimulated, and drug treated samples. IC50 values for test compounds were calculated from % inhibition of VEGF stimulated responses in the absence of inhibitor. Protocol for KDR Assay: KDR Assay: The cytoplasmic domain of the human VEGF receptor (VEGFR-2) was expressed as a Histidine-tagged fusion protein following infection of insect cells using an engineered baculovirus. His-VEGFR-2 was purified to homogeneity, as determined by SDS-PAGE, using nickel resin chromatography. Kinase assays were performed in 96 well microtiter plates that were coated overnight with 30 μg of poly-Glu-Tyr (4:1) in 10 mM Phosphate Buffered Saline (PBS), pH 7.2-7.4. The plates were incubated with 1% BSA and then washed four times with PBS prior to starting the reaction. Reactions were carried out in 120 μL reaction volumes containing 3.6 μM ATP in kinase buffer (50 mM Hepes buffer pH 7.4, 20 mM MgCl2, 0.1 mM MnCl2 and 0.2 mM Na3VO4). Test compounds were reconstituted in 100% DMSO and added to the reaction to give a final DMSO concentration of 5%. Reactions were initiated by the addition 0.5 ng of purified protein. Following a ten minute incubation at 25° C., the reactions were washed four times with PBS containing 0.05% Tween-20. 100 μl of a monoclonal anti-phosphotyrosine antibody-peroxidase conjugate was diluted 1:10000 in PBS-Tween-20 and added to the wells for 30 minutes. Following four washes with PBS-Tween-20, 100 μl of O-phenylenediamine Dihydrochloride in Phosphate-citrate buffer, containing urea hydrogen peroxide, was added to the wells for 7 minutes as a colorimetric substrate for the peroxidase. The reaction was terminated by the addition of 100 μl of 2.5N H2SO4 to each well and read using a microplate ELISA reader set at 492 nm. IC50 values for compound inhibition were calculated directly from graphs of optical density (arbitrary units) versus compound concentration following subtraction of blank values. VEGF-induced Dermal Extravasation in Guinea Pig (Miles Assay). Male Hartley guinea pigs (300-600 g) were anesthetized with isofluorane, sheared, and given a single dose of drug or the respective vehicle. The guinea pigs were dosed orally unless indicated otherwise in Table 3. Ten minutes prior to the end of drug treatment, guinea pigs were anesthetized with isofluorane, and 0.5% Evans blue dye (EBD) in PBS (13-15 mg/kg dose of EBD) was injected intravenously. After 5 minutes, triplicate intradermal injections of 100 ng rhVEGF165 in 100 μl PBS and of 100 μl PBS alone were administered on the flank. After 20 minutes, each animal was euthanized with Pentosol, and the skin containing the intradermal injection sites was removed for image analysis.

Data set [3] has as its system laser-induced choroidal neovascularization. As to the kind of experiment: Laser-induced Choroidal Neovascularization (CNV) in Rat (CNV Assay). Type of data set: in vivo. The method, then:
Laser-induced Choroidal Neovascularization (CNV) in Rat (CNV Assay). CNV was induced and quantified in this model as previously described (Edelman and Castro. Exp. Eye Res. 2000; 71:523-533). On day 0, male Brown Norway rats (200-300 g) were anesthetized with 100 mg/kg Ketamine and 10 mg/kg Xylazine, and pupils were dilated with 1% Tropicamide. Using the blue-green setting of a Coherent Novus Argon Laser, 3 laser burns (90 mW for 0.1 s; 100 μm diameter) were given to each eye between the retinal vessels around the optic nerve head. Rats were dosed with test compounds in their indicated vehicles orally once daily.
On day 10, rats were sacrificed with 100% CO2, and blood vessels were labeled by vascular perfusion with 10 mg/ml FITC-dextran (MW 2×10^6). Using an epifluorescence microscope (20×) coupled to a spot digital camera and a PC, images were obtained from the flat mounts of the RPE-choroid-sclera from each eye, and the area occupied by hyperfluorescent neovessels within each laser lesion was measured using ImagePro 4 software.
To determine the dose required for 50% inhibition (ID50), the percent inhibition data was plotted as a function of oral dose, using the ‘best-fit’ analysis within MicroSoft Excel software. The ID50 value was verified visually by using the plotted data (horizontal line from 50% y value, at intersection with best-fit line drop vertical line to x axis (dose)).

T1 sequence (P35968 786-1356 limits assumed): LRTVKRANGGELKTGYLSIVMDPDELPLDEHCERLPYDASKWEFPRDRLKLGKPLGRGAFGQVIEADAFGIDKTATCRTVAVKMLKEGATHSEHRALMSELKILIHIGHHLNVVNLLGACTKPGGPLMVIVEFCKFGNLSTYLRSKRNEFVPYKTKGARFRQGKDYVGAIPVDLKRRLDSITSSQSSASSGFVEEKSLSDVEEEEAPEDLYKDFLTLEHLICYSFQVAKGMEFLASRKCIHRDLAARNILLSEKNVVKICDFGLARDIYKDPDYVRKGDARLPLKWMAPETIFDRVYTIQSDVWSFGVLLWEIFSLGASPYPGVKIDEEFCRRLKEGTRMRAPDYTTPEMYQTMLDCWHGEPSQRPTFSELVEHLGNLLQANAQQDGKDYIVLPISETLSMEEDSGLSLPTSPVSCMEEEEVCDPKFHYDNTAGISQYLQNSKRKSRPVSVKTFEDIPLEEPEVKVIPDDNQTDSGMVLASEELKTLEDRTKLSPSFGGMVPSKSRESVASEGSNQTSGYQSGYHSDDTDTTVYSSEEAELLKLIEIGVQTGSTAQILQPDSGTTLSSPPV

In the case of `Cc1cccc2c1C(=CNc1ccc(C(=O)O)c(O)c1)C(=O)N2` [Example 155, 2-Hydroxy-4-[(4-methyl-2-oxo-1,2-dihydro-indol-3-ylidenemethyl)-amino]-benzoic acid], in data set [1], half-maximal inhibition (IC50) was put at 400 nM.
Consider `Cc1cccc2c1C(=CNc1ccc(NCCN3CCOCC3)cc1)C(=O)N2` [Example 242, 4-Methyl-3-{[4-(2-morpholin-4-yl-ethylamino)-phenylamino]-methylene}-1,3-dihydro-indol-2-one], for which, in data set [2], the “VEGF Stimulated Ca^++ signal assay % inhibition @ 10 μM” value amounted to 95.82%.
In turn, `CCN(CC)Cc1cc(NC=C2C(=O)Nc3cccc(C)c32)ccc1O` [Example 161, 3-[(3-Diethylaminomethyl-4-hydroxy-phenylamino)-methylene]-4-methyl-1,3-dihydro-indol-2-one] returned an IC50 in data set [1] of 160 nM.
As for `O=C1Nc2ccccc2C1=CNc1ccc2c(c1)OCO2` [Example 80, 3-[(3,4-Methylenedioxyphenylamino)-methylene]-11,3-dihydro-indol-2-one], the “VEGF Stimulated Ca^++ signal assay % inhibition @ 10 μM” value in data set [2] worked out at 3.50%.
The compound “4-(5-Chloro-2-oxo-1,2-dihydro-indol-3-ylidenemethyl)-6-indazolylamine [Example 103]” yielded an IC50 in data set [1] of 480 nM. Also, in data set [2], the “VEGF Stimulated Ca^++ signal assay % inhibition @ 10 μM” value was determined as 96.59% and the IC50 is 1040 nM.
For the compound `O=C1Nc2ccccc2C1=CNc1ccc(N2CCOCC2)cc1` [Example 40], in data set [3] (100 mg/kg (sid), PEG400, oral), the “CNV Assay % inhibition (result in words)” value is given as “toxic”.
Take `CC(O)c1ccc(NC=C2C(=O)Nc3ccc(Cl)cc32)cc1` (stereo not shown) [Example 72, 5-Chloro-3-{[4-(1-hydroxy-ethyl)-phenylamino]-methylene}-1,3-dihydro-indol-2-one]: in data set [2], the “VEGF Stimulated Ca^++ signal assay % inhibition @ 10 μM” value stood at 81.50% and the half-inhibitory concentration (IC50) turned out to be 1560 nM.
Take `CCN(CC)CCCOc1ccc(NC=C2C(=O)Nc3ccccc32)cc1` [Example 214, 3-{[4-(3-Diethylamino-propoxy)-phenylamino]-methylene}-1,3-dihydro-indol-2-one]: testing at 80 mg/kg in data set [3] (Rattus norvegicus, 240 h, 80 mg/kg (sid), corn oil, oral) gave an inhibition in vivo of 85%.
On to `O=C1Nc2ccccc2C1=CNc1cccc(Br)c1` [Example 2], for which the “VEGF Stimulated Ca^++ signal assay % inhibition @ 10 μM” value in data set [2] is listed as −0.5%.
With `COc1ccc(NC=C2C(=O)Nc3ccc(Cl)cc32)cc1F` [Example 105, 5-Chloro-3-[(3-fluoro-4-methoxyphenylamino)-methylene]-1,3-dihydro-indol-2-one], the inhibition at 10 µM in data set [2] (Homo sapiens) is 17.5%.
Compound `O=C1Nc2ccc(F)cc2C1=CNc1ccc(N2CCCCC2)cc1` [Example 221] registered an IC50 in data set [1] of 380 nM. For the same compound, in data set [2] (Homo sapiens), the inhibition at 10 µM was 97.6% and the IC50 was ≤ 1000 nM.

By IC50 is commonly meant the point on the concentration scale where inhibition reaches its midpoint. By inhibition in vivo is commonly meant how much of the control response was suppressed. The inhibition is the percentage by which the read-out fell short of the control.
